Key:
human NK1 receptor = target: T1, human NK1 receptor (Homo sapiens, UniProt P25103); experiment: FLIPR assay, inhibition of human NK1 receptor activation (intracellular Ca2+); format: cell-based; settings: CHO cells with human NK1 receptor, agonist Substance P, read-out: pKB (NK1) (converted)
T1 construct: expressed in transfected cells; host or cells: CHO cells (AstraZeneca R&D Wilmington), cDNA in pRcCMV
Procedure: (§1) Chinese Hamster Ovary (CHO) K1 cells (obtained from ATCC) were stably transfected with the human NK2 receptor (hNK2R cDNA in pRc/CMV, Invitrogen) or the human NK3 receptor (hNK3R in pcDNA 3.1/Hygro (+)/IRES/CD8, Invitrogen vector modified at AstraZeneca EST-Bio UK, Alderley Park). The cells were transfected with the cationic lipid reagent LIPOFECTAMINE™ (Invitrogen) and selection was performed with Geneticin (G418, Invitrogen) at 1 mg/ml for the hNK2R transfected cells and with Hygromycin (Invitrogen) at 500 μg/ml for the hNK3R transfected cells. Single cell clones were collected by aid of Fluorescence Activated Cell Sorter (FACS), tested for functionality in a FLIPR assay (see below), expanded in culture and cryopreserved for future use. CHO cells stably transfected with human NK1 receptors originates from AstraZeneca R&D, Wilmington USA. Human NK1 receptor cDNA (obtained from RNA-PCR from lung tissue) was subcloned into pRcCMV (Invitrogen). Transfection was performed by Calcium Phosphate and selection with 1 mg/ml G418. […]
(§2) The activity of a compound of the invention to inhibit NK1/NK2/NK3 receptor activation measured as NK1/NK2/NK3 receptor mediated increase in intracellular Ca^2+ was assessed by the following procedure: […]

human NK2 receptor = target: T2, human NK2 receptor (Homo sapiens, UniProt P21452); experiment: FLIPR assay, inhibition of human NK2 receptor activation (intracellular Ca2+); format: cell-based; settings: CHO cells with human NK2 receptor, agonist NKA, read-out: pKB (NK2) (converted)
T2 construct: expressed in transfected cells; host or cells: CHO-K1 cells (ATCC), hNK2R cDNA in pRc/CMV
T2 sequence (P21452 1-398): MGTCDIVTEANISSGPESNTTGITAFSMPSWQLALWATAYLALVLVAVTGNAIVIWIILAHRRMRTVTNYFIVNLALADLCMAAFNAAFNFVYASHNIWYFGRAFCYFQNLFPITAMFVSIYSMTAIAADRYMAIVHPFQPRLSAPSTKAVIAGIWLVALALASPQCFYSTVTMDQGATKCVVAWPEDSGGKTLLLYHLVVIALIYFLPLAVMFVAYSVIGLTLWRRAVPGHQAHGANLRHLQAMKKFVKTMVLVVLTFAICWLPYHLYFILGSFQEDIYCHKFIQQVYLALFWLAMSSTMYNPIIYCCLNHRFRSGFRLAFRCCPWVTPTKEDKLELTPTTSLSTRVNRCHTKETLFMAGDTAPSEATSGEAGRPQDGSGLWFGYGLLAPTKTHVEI
Procedure: as §1, §2

human NK3 receptor = target: T3, human NK3 receptor (Homo sapiens, UniProt P29371); experiment: FLIPR assay, inhibition of human NK3 receptor activation (intracellular Ca2+); format: cell-based; settings: CHO cells with human NK3 receptor, agonist Pro-7-NKB, read-out: pKB (NK3) (converted)
T3 construct: expressed in transfected cells; host or cells: CHO-K1 cells (ATCC), hNK3R in pcDNA 3.1/Hygro (+)/IRES/CD8
T3 sequence (P29371 1-465): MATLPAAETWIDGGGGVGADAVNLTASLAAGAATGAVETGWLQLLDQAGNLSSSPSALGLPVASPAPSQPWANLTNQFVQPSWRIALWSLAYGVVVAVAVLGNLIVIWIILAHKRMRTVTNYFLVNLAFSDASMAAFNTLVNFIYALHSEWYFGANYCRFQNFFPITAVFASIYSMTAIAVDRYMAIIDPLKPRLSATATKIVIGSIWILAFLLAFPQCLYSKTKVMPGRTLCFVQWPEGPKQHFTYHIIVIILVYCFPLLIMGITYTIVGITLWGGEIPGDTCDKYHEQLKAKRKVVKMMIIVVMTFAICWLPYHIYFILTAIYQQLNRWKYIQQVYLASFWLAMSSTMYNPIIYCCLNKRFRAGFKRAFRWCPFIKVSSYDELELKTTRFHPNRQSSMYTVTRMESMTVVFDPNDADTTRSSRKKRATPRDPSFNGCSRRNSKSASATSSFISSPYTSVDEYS
Procedure: as §1, §2

[1] = target: hERG-encoded potassium channel (Homo sapiens, UniProt Q12809); experiment: Activity against hERG (planar-array-based voltage clamp, Kiss et al.); format: cell-based
hERG-encoded potassium channel, sequence (Q12809 whole entry): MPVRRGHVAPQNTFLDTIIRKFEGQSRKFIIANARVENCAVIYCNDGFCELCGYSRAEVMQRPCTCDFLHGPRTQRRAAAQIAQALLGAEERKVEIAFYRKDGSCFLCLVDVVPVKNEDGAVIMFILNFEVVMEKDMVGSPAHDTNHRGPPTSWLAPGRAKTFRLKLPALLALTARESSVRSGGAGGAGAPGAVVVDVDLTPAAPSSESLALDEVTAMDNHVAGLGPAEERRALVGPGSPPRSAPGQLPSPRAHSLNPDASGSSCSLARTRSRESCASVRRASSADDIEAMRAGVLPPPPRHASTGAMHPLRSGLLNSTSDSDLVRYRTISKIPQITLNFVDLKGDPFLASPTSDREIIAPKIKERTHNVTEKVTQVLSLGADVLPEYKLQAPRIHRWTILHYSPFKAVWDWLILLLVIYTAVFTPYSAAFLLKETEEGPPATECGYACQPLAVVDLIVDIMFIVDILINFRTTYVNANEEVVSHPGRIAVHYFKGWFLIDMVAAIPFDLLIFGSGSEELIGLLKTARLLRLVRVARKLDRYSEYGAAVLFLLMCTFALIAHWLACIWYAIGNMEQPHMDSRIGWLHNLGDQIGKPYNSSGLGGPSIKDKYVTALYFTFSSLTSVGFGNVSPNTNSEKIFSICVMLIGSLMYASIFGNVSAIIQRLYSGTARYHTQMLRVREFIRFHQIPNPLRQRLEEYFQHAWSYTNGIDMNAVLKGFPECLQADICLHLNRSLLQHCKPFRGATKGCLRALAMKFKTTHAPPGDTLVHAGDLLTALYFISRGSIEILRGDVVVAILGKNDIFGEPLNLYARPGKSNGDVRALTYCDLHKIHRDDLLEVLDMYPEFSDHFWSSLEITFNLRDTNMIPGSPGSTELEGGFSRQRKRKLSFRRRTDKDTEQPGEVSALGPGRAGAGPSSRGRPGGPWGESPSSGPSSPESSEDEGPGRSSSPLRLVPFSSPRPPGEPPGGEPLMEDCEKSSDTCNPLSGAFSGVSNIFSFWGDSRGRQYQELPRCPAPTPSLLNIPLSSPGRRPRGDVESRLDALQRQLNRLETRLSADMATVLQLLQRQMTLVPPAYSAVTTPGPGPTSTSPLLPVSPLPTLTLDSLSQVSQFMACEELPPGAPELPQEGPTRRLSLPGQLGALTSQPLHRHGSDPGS
Source text: The activity of compounds according to formula I against the hERG-encoded potassium channel can be determined according to Kiss L, et al. Assay Drug Dev Technol. 1 (2003), 127-35: “High throughput ion-channel pharmacology: planar-array-based voltage clamp”.

CYP3A4 = CYP3A4 (Homo sapiens, UniProt P08684); experiment: CYP3A4 inhibition assay (Bapiro et al.); format: in vitro ADME
CYP3A4, sequence (P08684 whole entry): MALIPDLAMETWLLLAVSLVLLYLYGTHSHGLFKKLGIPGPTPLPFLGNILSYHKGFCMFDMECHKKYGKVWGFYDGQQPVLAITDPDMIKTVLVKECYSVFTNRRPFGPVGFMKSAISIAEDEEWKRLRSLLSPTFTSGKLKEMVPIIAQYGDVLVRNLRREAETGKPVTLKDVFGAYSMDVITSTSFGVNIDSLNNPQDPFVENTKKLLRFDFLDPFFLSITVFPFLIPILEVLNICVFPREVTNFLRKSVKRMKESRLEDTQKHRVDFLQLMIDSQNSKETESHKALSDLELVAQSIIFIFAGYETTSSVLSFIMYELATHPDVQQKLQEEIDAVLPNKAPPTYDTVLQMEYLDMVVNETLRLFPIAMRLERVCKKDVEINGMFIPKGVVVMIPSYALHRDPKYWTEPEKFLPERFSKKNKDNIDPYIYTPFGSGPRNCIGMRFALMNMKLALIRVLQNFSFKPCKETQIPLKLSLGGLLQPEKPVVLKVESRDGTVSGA
Source text: It is well known that severe problems such as toxicity may occur if plasma levels of one medication are altered by the co-administration of another drug. […] CYP (cytochrome P450) 3A4 is the most important enzyme in the human liver as a majority of oxidised drugs have been biotransformed by this enzyme. Accordingly, it is undesirable to employ a medication having a significant degree of such liver enzyme inhibiting properties. […] Thus, there is a need for a novel NK receptor antagonist with improved pharmacokinetic properties. The present invention provides compounds with CYP3A4 enzyme inhibiting properties at a low level, as comparatively high IC50 values are obtained in a CYP3A4 inhibiting assay. Said method for determining CYP3A4 inhibition is described in Bapiro et al; Drug Metab. Dispos. 29, 30-35 (2001).
The IC50 values tested according to Bapiro et al; Drug Metab. Dispos. 29, 30-35 (2001) were generally greater than 2 μM.

[2] = Metabolic stability in liver microsomes (HLM); format: in vitro ADME; settings: pH 7.4; human liver microsomes
Procedure: Stability against human microsomal metabolism in vitro is indicative of stability towards metabolism in vivo.
The metabolic stability of compounds according to formula I can be determined as described below: […]
The rate of biotransformation can be measured as either metabolite(s) formation or the rate of disappearance of the parent compound. The experimental design involves incubation of low concentrations of substrate (usually 1.0 μM) with liver microsomes (usually 0.5 mg/ml) and taking out aliquots at varying time points (usually 0, 5, 10, 15, 20, 30, 40 min.). The test compound is usually dissolved in DMSO. The DMSO concentration in the incubation mixture is usually 0.1% or less since more solvent can drastically reduce the activities of some CYP450s. Incubations are done in 100 mM potassium phosphate buffer, pH 7.4 and at 37° C. Acetonitrile or methanol is used to stop the reaction.

[3] = target: T4, Human Neurokinin-2 (NK2) Receptor (Homo sapiens, UniProt P21452); settings: Bioorg. Med. Chem. Lett. (2003), 13, 2211-2215; cited from earlier work
T4 sequence (P21452 1-398): T2 sequence (P21452 1-398)

T1 sequence (P25103 whole entry): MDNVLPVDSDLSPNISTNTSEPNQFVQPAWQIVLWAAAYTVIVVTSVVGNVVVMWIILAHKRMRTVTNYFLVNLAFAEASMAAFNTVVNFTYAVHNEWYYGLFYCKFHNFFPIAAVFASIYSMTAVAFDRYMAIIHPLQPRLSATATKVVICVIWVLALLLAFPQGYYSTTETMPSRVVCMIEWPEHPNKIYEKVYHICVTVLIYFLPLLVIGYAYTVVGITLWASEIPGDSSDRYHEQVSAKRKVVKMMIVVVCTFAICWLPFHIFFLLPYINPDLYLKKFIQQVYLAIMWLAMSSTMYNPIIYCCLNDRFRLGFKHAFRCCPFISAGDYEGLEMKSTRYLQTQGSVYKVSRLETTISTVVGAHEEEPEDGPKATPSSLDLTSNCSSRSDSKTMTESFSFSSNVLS

| Kb (human NK1 receptor) | Kb (human NK2 receptor) | Kb (human NK3 receptor) | IC50 (CYP3A4) | microsomal CLint at 1 μM [2] | SMILES | IC50 [1] | functional NK2 receptor antagonism [3] |
| --- | --- | --- | --- | --- | --- | --- | --- |
| 7.94 nM | 25.1 nM | 20 nM | 19200 nM | 40.7 µL/min/mg | CN(C[C@@H](CCN1CC(N2CCOC[C@H]2CCO)C1)c1ccc(F)cc1)C(=O)c1cc(Br)cc(C(F)(F)F)c1 [Ex 5, 3-Bromo-N-((2S)-2-(4-fluorophenyl)-4-{3-[(3R)-3-(2-hydroxyethyl)morpholin-4-yl]azetidin-1-yl}butyl)-N-methyl-5-(trifluoromethyl)benzamide] | 18800 nM | – |
| – | – | – | – | – | CN(CC(CCN1CC(N2CCOCC2)C1)c1ccc(Cl)c(Cl)c1)C(=O)c1ccccc1 (stereo not shown) [N-[2-(3,4-dichlorophenyl)-4-(3-morpholin-4-ylazetidin-1-yl)butyl]-N-methylbenzamide] | – | functional NK2 receptor antagonistic properties |
